Assay [1] concerns the target T1, EGFR L858R/T790M/C797S (BaF3-LTC cells) (Homo sapiens, UniProt P00533, C797S/L858R/T790M).
T1 construct: expressed in transfected cells; host or cells: BaF3
Description: EGFR degradation HTRF assay, BaF3-LTC cells. It counts as cell-based. The following applies: BaF3-LTC cells; for DC50: EGFR degradation, IC50 (DC50) from curve fit, read-out: DC50(nM) BaF3-LTC; for Dmax: maximum percentage of inhibition (degradation), read-out: Dmax (%) BaF3-LTC. A digest of the protocol: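 EGFR remaining after a 16 h, 37 °C exposure (8 doses, 5-fold steps from 10 uM final, 0.2% DMSO) was quantified by HTRF antibodies in cell lysate. Percent inhibition relative to DMSO control was fitted by four-parameter logistic to give DC50; Dmax denotes maximal degradation.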

Assay [2] deals with EGFR Del19/T790M/C797S (H1975-clone #28). Description: EGFR degradation HTRF assay, H1975-clone #28 DTC cells. It counts as cell-based. The note with it: H1975 # 28 DTC cells; for DC50: EGFR degradation, IC50 (DC50) from curve fit, read-out: DC50(nM) H1975 # 28 DTC; for Dmax (%) H1975 # 28 DTC: maximum percentage of inhibition (degradation). In outline:
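Cells were dosed on day 2 with an 8-point, 5-fold dilution series starting at 10 uM final and incubated 16h at 37° C. After lysis for 1 hour, HTRF antibodies were added overnight at room temperature and the plate was read at 665/620 nm. Degradation was normalised to DMSO wells and fitted for DC50 and Dmax.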
For orientation: Time-resolved FRET reads energy transfer from a long-lived donor to a nearby acceptor.

T1 sequence (P00533 25-1210 T790M/C797S/L858R): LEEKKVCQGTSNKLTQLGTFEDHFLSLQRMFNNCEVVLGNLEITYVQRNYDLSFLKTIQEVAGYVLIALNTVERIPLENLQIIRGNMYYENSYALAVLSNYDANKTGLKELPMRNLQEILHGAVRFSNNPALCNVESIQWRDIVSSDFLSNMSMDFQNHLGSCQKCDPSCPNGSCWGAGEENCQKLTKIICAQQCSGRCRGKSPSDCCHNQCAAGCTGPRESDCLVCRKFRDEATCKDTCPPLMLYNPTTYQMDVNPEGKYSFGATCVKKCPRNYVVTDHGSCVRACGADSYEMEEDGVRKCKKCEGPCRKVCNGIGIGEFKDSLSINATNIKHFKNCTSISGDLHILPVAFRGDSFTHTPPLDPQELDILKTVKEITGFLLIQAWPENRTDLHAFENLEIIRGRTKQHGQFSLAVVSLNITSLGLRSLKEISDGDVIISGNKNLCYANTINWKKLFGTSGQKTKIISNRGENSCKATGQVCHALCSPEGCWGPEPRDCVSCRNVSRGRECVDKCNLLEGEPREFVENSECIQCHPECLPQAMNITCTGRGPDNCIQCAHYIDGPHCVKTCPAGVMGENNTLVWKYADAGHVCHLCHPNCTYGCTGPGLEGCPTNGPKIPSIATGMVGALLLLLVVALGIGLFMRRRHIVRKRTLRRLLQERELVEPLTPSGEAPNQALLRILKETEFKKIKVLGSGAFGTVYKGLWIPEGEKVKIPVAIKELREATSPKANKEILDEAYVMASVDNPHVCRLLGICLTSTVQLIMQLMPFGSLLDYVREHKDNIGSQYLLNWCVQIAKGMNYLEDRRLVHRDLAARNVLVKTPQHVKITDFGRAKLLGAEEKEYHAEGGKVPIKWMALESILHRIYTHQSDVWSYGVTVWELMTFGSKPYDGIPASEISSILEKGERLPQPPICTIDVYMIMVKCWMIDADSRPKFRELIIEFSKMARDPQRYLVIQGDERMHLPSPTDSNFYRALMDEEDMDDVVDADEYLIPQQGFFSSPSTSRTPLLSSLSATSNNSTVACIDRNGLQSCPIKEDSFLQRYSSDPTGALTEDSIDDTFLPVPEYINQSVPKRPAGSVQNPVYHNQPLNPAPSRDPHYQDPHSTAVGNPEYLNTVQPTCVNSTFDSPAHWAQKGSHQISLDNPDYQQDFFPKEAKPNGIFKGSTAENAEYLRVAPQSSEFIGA

Broadly, the DC50 is the concentration at which degradation of the target reaches its halfway point. The term Dmax denotes the greatest extent of degradation seen. As to `CCc1cnc2c(P(C)(C)=O)c(Nc3nc(Nc4cc(CC)c(N5CCC(N6CCN(C(=O)[C@@H]7CCN(c8cc(F)c([C@H]9CCC(=O)NC9=O)c(F)c8)C7)CC6)CC5)cc4OC)ncc3Br)ccc2n1` [Example 538, (R)-3-(4-((R)-3-(4-(1-(4-((5-bromo-4-((5-(dimethylphosphoryl)-2-ethylquinoxalin-6-yl)amino)pyrimidin-2-yl)amino)-2-ethyl-5-methoxyphenyl)piperidin-4-yl)piperazine-1-carbonyl)pyrrolidin-1-yl)-2,6-difluorophenyl)piperidine-2,6-dione], in assay [1], the DC50 was determined as 16.2 nM and the Dmax amounted to 89.6%. Besides, in assay [2], the DC50 came to 2.39 nM and the “Dmax (%) H1975 # 28 DTC” value was 80.57%.
For `CCc1ccc2c(P(C)(C)=O)c(Nc3nc(Nc4cc(C)c(N5CCC(N6CCN(C(=O)[C@@H]7CCN(c8cc(F)c([C@H]9CCC(=O)NC9=O)c(F)c8)C7)CC6)CC5)cc4OC)ncc3Br)ccc2n1` [Example 539, (R)-3-(4-((R)-3-(4-(1-(4-((5-bromo-4-((5-(dimethylphosphoryl)-2-ethylquinolin-6-yl)amino)pyrimidin-2-yl)amino)-5-methoxy-2-methylphenyl)piperidin-4-yl)piperazine-1-carbonyl)pyrrolidin-1-yl)-2,6-difluorophenyl)piperidine-2,6-dione], in that order: 6.44 nM, 94.1%, 1.09 nM and 84.42%.
Take `CCOc1cc(N2CCC(N3CCN(CC4CN(c5cc(F)c([C@H]6CCC(=O)NC6=O)c(F)c5)C4)CC3)CC2)c(CC)cc1Nc1ncc(Br)c(Nc2ccc3nc(CC)ccc3c2P(C)(C)=O)n1` [Example 541, (R)-3-(4-(3-((4-(1-(4-((5-bromo-4-((5-(dimethylphosphoryl)-2-ethylquinolin-6-yl)amino)pyrimidin-2-yl)amino)-5-ethoxy-2-ethylphenyl)piperidin-4-yl)piperazin-1-yl)methyl)azetidin-1-yl)2,6-difluorophenyl)piperidine-2,6-dione]: in assay [1], the DC50 came out at 17.8 nM. Besides, in assay [2], the DC50 turned out to be 2.08 nM and the “Dmax (%) H1975 # 28 DTC” value was found to be 88.77%.
For `COc1cc(N2CCC3(CCN(CCCCCOc4cccc5c4CN(C4CCC(=O)NC4=O)C5=O)CC3)CC2)c(C)cc1Nc1ncc(Br)c(Nc2ccc3nccnc3c2P(C)(C)=O)n1` (stereo not drawn) [Example 542, 3-(4-((5-(9-(4-((5-bromo-4-((5-(dimethylphosphoryl)quinoxalin-6-yl)amino)pyrimidin-2-yl)amino)-5-methoxy-2-methylphenyl)-3,9-diazaspiro[5.5]undecan-3-yl)pentyl)oxy)-1-oxoisoindolin-2-yl)piperidine-2,6-dione], in that order: 11.2 nM, 0.75 nM and 45.37%.
For `CCc1cc(Nc2ncc(Br)c(Nc3ccc4nc(C)ccc4c3P(C)(C)=O)n2)c(OC2CC2)cc1N1CCC(N2CCN(C(=O)[C@@H]3CCN(c4cc(F)c([C@H]5CCC(=O)NC5=O)c(F)c4)C3)CC2)CC1` [Example 544, (R)-3-(4-((R)-3-(4-(1-(4-((5-bromo-4-((5-(dimethylphosphoryl)-2-methylquinolin-6-yl)amino)pyrimidin-2-yl)amino)-5-cyclopropoxy-2-ethylphenyl)piperidin-4-yl)piperazine-1-carbonyl)pyrrolidin-1-yl)-2,6-difluorophenyl)piperidine-2,6-dione], in assay [1], the DC50 turned out to be 12.5 nM and the Dmax is 90.3%. Also, in assay [2], the DC50 was 1.48 nM and the “Dmax (%) H1975 # 28 DTC” value is listed as 81.13%.

Values taken from patent publication US20230265116A1, “DEGRADATION OF (EGFR) BY CONJUGATION OF EGFR INHIBITORS WITH E3 LIGASE LIGAND AND METHODS OF USE” (BEIGENE, LTD., priority 2020, published 2023).
